The source of these data is patent US20230072421A1, “TARGETED RADIOPHARMACEUTICALS FOR THE DIAGNOSIS AND TREATMENT OF PROSTATE CANCER” (Bayer AS, priority 2019, published 2023).

What is called remaining activity is the signal under treatment as a percentage of the control signal.

The target in this test is T1, PSMA-expressing LNCaP cells (Homo sapiens, UniProt Q04609).
T1 construct: PSMA-expressing LNCaP cells; endogenous in cells; host or cells: LNCaP
Description: Binding competition assay against 3H-PSMA-617 on LNCaP cells. The conditions noted are these: for remaining activity at 0.01 µM / remaining activity at 0.1 µM: LNCaP cells, 10 nM 3H-PSMA-617, 2 h at 37° C., triplicates; for remaining activity at 0.01 µM: competing non-radiolabeled compound 10 nM; for remaining activity at 0.1 µM: competing non-radiolabeled compound 100 nM; for competition against 3H-PSMA-617 on PSMA-expressing LNCaP cells (in words): comparison between examples. As to the method:
Cells were incubated at 37° C. and 5% CO2 over night. […] After addition of the compounds in growth media the cells were swiveled slightly on a shaker mixing for 10 min followed by incubation for 2 h at 37° C., 5% C02. Following the incubation time the supernatant was removed by pipetting and cells were washed twice with ice cold PBS (total of 800 μl). Cells were lysed in 500 μl of 0.3M NaOH (PanReac AppliChem ITW Reagents) by vigorous shaking for 15 min and the cell lysated pipetted into scintillator tubes (S207-[…]® Scintillation Vials 6.5 ml #S207, Simport). In the following the wells were washed with 500 μl PBS and the washing PBS added to the corresponding samples in the sincitallator tubes. To each sample in the scintillator tubes 4 mL of Ultima Gold liquid scintillation cocktail (Sigma-Aldrich #L8286) was added and the samples let stand for at least 30 min. Thereafter radioactivity was counted in a Tri-Carb Liquid Scinzillation Analyzer (Perkin Elmer).

T1 sequence (Q04609 whole entry): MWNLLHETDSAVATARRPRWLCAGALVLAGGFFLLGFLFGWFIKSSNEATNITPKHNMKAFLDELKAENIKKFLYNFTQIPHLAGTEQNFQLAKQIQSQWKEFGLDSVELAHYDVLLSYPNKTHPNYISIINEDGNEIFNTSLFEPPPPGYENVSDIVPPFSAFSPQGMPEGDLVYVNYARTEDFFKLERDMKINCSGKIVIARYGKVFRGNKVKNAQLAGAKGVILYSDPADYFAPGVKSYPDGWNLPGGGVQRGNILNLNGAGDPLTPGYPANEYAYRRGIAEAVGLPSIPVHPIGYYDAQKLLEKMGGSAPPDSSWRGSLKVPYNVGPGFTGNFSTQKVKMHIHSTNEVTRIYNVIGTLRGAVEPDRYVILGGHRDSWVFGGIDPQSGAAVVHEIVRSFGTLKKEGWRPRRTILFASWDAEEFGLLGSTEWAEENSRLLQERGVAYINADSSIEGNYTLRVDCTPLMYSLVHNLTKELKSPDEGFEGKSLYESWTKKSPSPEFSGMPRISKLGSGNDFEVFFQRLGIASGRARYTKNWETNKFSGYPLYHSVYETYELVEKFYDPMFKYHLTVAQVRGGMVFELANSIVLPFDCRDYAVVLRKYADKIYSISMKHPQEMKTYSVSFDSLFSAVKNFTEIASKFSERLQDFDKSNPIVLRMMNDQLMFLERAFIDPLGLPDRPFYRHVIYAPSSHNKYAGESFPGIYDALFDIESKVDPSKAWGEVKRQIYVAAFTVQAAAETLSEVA

As to `CNc1cc(C[C@@H](NC(=O)[C@H]2CC[C@H](CN)CC2)C(=O)NCCCC[C@H](NC(=O)N[C@@H](CCC(=O)O)C(=O)O)C(=O)O)cc2ccccc12` [Example 37-A, (3R,10S,14S)-1-[(1r,4S)-4-(aminomethyl)cyclohexyl]-3-{[4-(methylamino)naphthalen-2-yl]methyl}-1,4,12-trioxo-2,5,11,13-tetraazahexadecane-10,14,16-tricarboxylic acid], the remaining activity at 0.01 µM amounted to 145% and the remaining activity at 0.1 µM came out at 75%.
The corresponding values for `O=C(O)CC[C@H](NC(=O)N[C@@H](CCCCNC(=O)[C@H](Cc1ccc2ccccc2c1)NC(=O)NCC1CCNCC1)C(=O)O)C(=O)O` [Example 30-A, (5S,12S,16S)-5-[(naphthalen-2-yl)methyl]-3,6,14-trioxo-1-(piperidin-4-yl)-2,4,7,13,15-pentaazaoctadecane-12,16,18-tricarboxylic acid] are 136% and 96%.
The corresponding values for `O=C(O)CC[C@H](NC(=O)N[C@@H](CCCCNC(=O)[C@@H](Cc1ccc2c(c1)CCCO2)NC(=O)[C@H]1CC[C@H](CNC(=O)CN2CCN(CC(=O)O)CCN(CC(=O)O)CCN(CC(=O)O)CC2)CC1)C(=O)O)C(=O)O` [Example 38-B, N^6-{3-(3,4-dihydro-2H-1-benzopyran-6-yl)-N-[(1r,4S)-4-({2-[4,7,10-tris(carboxymethyl)-1,4,7,10-tetraazacyclododecan-1-yl]acetamido}methyl)cyclohexane-1-carbonyl]-D-alanyl}-N^2-{[(1S)-1,3-dicarboxypropyl]carbamoyl}-L-lysine] are 76% and 34%.
As to `NCc1ccc(C(=O)N[C@@H](Cc2ccc3ccccc3c2)C(=O)NCCCC[C@H](NC(=O)N[C@@H](CCC(=O)O)C(=O)O)C(=O)O)cn1` [Example 26-A, (3S,10S,14S)-1-[6-(aminomethyl)pyridin-3-yl]-3-[(naphthalen-2-yl)methyl]-1,4,12-trioxo-2,5,11,13-tetraazahexadecane-10,14,16-tricarboxylic acid], the remaining activity at 0.01 µM turned out to be 33%; the remaining activity at 0.1 µM came to 6%; the “competition against 3H-PSMA-617 on PSMA-expressing LNCaP cells (in words)” value was “improved competition in comparison to the cyclohexyl examples 1-A and 1-B”.
As to `NC[C@H]1CC[C@H](C(=O)N[C@H](Cc2ccc3c(c2)CCCO3)C(=O)NCCCC[C@H](NC(=O)N[C@@H](CCC(=O)O)C(=O)O)C(=O)O)CC1` [Example 38-A, N^6—{N-[(1r,4S)-4-(aminomethyl)cyclohexane-1-carbonyl]-3-(3,4-dihydro-2H-1-benzopyran-6-yl)-D-alanyl}-N^2-{[(1S)-1,3-dicarboxypropyl]carbamoyl}-L-lysine], the remaining activity at 0.01 µM was 140% and the remaining activity at 0.1 µM amounted to 106%.
With `NC[C@H]1CC[C@H](CNC(=O)N[C@@H](Cc2ccc3ccccc3c2)C(=O)NCCCC[C@H](NC(=O)N[C@@H](CCC(=O)O)C(=O)O)C(=O)O)CC1` [Example 29-A, (5S,12S,16S)-1-[(1r,4S)-4-(aminomethyl)cyclohexyl]-5-[(naphthalen-2-yl)methyl]-3,6,14-trioxo-2,4,7,13,15-pentaazaoctadecane-12,16,18-tricarboxylic acid], the remaining activity at 0.01 µM worked out at 113% and the remaining activity at 0.1 µM is 92%.
Consider `O=C(O)CC[C@H](NC(=O)N[C@@H](CCCCNC(=O)[C@H](Cc1ccc2ccccc2c1)NC(=O)c1ccc(CNC(=O)CN2CCN(CC(=O)O)CCN(CC(=O)O)CCN(CC(=O)O)CC2)cn1)C(=O)O)C(=O)O` [Example 25-B, (3S,10S,14S)-3-[(naphthalen-2-yl)methyl]-1,4,12-trioxo-1-[5-({2-[4,7,10-tris(carboxymethyl)-1,4,7,10-tetraazacyclododecan-1-yl]acetamido}methyl)pyridin-2-yl]-2,5,11,13-tetraazahexadecane-10,14,16-tricarboxylic acid], for which the remaining activity at 0.01 µM amounted to 54%; the remaining activity at 0.1 µM was determined as 5%; the “competition against 3H-PSMA-617 on PSMA-expressing LNCaP cells (in words)” value was “improved competition in comparison to the cyclohexyl examples 1-A and 1-B”.
For the compound `NC[C@H]1CC[C@H](C(=O)N[C@@H](Cc2ccc3ccccc3n2)C(=O)NCCCC[C@H](NC(=O)N[C@@H](CCC(=O)O)C(=O)O)C(=O)O)CC1` [Example 17-A, N^6—{N-[(1r,4S)-4-(aminomethyl)cyclohexane-1-carbonyl]-3-(quinolin-2-yl)-L-alanyl}-N^2-{[(1S)-1,3-dicarboxypropyl]carbamoyl}-L-lysine], the remaining activity at 0.01 µM is 84% and the remaining activity at 0.1 µM came to 56%.
The corresponding values for `O=C(O)CC[C@H](NC(=O)N[C@@H](CCCCNC(=O)[C@H](Cc1ccc2ccccc2c1)NC(=O)[C@H]1CC[C@H](CNC(=S)Nc2ccc(CC(CN(CCNC(=O)c3ccn(CCO)c(=O)c3O)CCNC(=O)c3ccn(CCO)c(=O)c3O)CN(CCNC(=O)c3ccn(CCO)c(=O)c3O)CCNC(=O)c3ccn(CCO)c(=O)c3O)cc2)CC1)C(=O)O)C(=O)O` [Example 1-F, (3S,10S,14S)-1-{(1r,4S)-4-[({[4-(3-[bis(2-{[3-hydroxy-1-(2-hydroxyethyl)-2-oxo-1,2-dihydropyridine-4-carbonyl]amino}ethyl)amino]-2-{[bis(2-{[3-hydroxy-1-(2-hydroxyethyl)-2-oxo-1,2-dihydropyridine-4-carbonyl]amino}ethyl)amino]methyl}propyl)phenyl]carbamothioyl}amino)methyl]cyclohexyl}-3-[(naphthalen-2-yl)methyl]-1,4,12-trioxo-2,5,11,13-tetraazahexadecane-10,14,16-tricarboxylic acid] are 71% and 21%.
In the same order, the values of `COc1c(C[C@@H](NC(=O)c2ccc(CNC(=O)CN3CCN(CC(=O)O)CCN(CC(=O)O)CCN(CC(=O)O)CC3)cn2)C(=O)NCCCC[C@H](NC(=O)N[C@@H](CCC(=O)O)C(=O)O)C(=O)O)ccc2ccccc12` [Example 33a-B, (3R,10S,14S)-3-[(1-methoxynaphthalen-2-yl)methyl]-1,4,12-trioxo-1-[5-({2-[4,7,10-tris(carboxymethyl)-1,4,7,10-tetraazacyclododecan-1-yl]acetamido}methyl)pyridin-2-yl]-2,5,11,13-tetraazahexadecane-10,14,16-tricarboxylic acid] are 74% and 42%.
In the same order, the values of `COc1c(C[C@@H](NC(=O)[C@H]2CC[C@H](CN)CC2)C(=O)NCCCC[C@H](NC(=O)N[C@@H](CCC(=O)O)C(=O)O)C(=O)O)ccc2ccccc12` [Example 33-A, (3R,10S,14S)-1-[(1r,4S)-4-(aminomethyl)cyclohexyl]-3-[(1-methoxynaphthalen-2-yl)methyl]-1,4,12-trioxo-2,5,11,13-tetraazahexadecane-10,14,16-tricarboxylic acid] are 66% and 72%.
`NC[C@H]1CC[C@H](C(=O)N[C@@H](Cc2ccc3ncccc3c2)C(=O)NCCCC[C@H](NC(=O)N[C@@H](CCC(=O)O)C(=O)O)C(=O)O)CC1` [Example 48-A, (3S,10S,14S)-1-[trans-4-(aminomethyl)cyclohexyl]-1,4,12-trioxo-3-[(quinolin-6-yl)methyl]-2,5,11,13-tetraazahexadecane-10,14,16-tricarboxylic acid]: the remaining activity at 0.01 µM is 73% and the remaining activity at 0.1 µM stood at 74%.
In the same order, the values of `O=C(O)CC[C@H](NC(=O)N[C@@H](CCCCNC(=O)[C@H](Cc1ccc2ccccc2c1)NC(=O)Cc1ccc(NC(=O)CN2CCN(CC(=O)O)CCN(CC(=O)O)CCN(CC(=O)O)CC2)cc1)C(=O)O)C(=O)O` [Example 23-B, (4S,11S,15S)-4-[(naphthalen-2-yl)methyl]-2,5,13-trioxo-1-(4-{2-[4,7,10-tris(carboxymethyl)-1,4,7,10-tetraazacyclododecan-1-yl]acetamido}phenyl)-3,6,12,14-tetraazaheptadecane-11,15,17-tricarboxylic acid] are 66% and 18%.
In the case of `Nc1ccc(CC(=O)N[C@@H](Cc2ccc3ccccc3c2)C(=O)NCCCC[C@H](NC(=O)N[C@@H](CCC(=O)O)C(=O)O)C(=O)O)cc1` [Example 23-A, (4S,11S,15S)-1-(4-aminophenyl)-4-[(naphthalen-2-yl)methyl]-2,5,13-trioxo-3,6,12,14-tetraazaheptadecane-11,15,17-tricarboxylic acid], the remaining activity at 0.01 µM came out at 59% and the remaining activity at 0.1 µM was 26%.
In the same order, the values of `NCc1ccc(C(=O)N[C@@H](Cc2ccc3ncccc3c2)C(=O)NCCCC[C@H](NC(=O)N[C@@H](CCC(=O)O)C(=O)O)C(=O)O)nc1` [Example 49-A, (3S,10S,14S)-1-[5-(aminomethyl)pyridin-2-yl]-1,4,12-trioxo-3-[(quinolin-6-yl)methyl]-2,5,11,13-tetraazahexadecane-10,14,16-tricarboxylic acid] are 65% and 44%.
